Tests used:
soybean = experiment: Test C pre-/postemergence test; assay type: in vivo, Glycine max
How it was run: (§1)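 Seeds were planted and treated preemergence with test chemical in a non-phytotoxic solvent mixture containing surfactant. Postemergence applications of the same formulation went onto plants 2 to 18 cm tall (1- to 4-leaf stage). A dash marks no test result.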

Goosegrass = experiment: Test C pre-/postemergence test; assay type: in vivo, Eleusin indica
How it was run: as §1

crabgrass [1] = experiment: Test A pre-/postemergence greenhouse test; assay type: in vivo, Digitaria sanguinalis; settings: for Crabgrass, Large plant response rating: 0 to 100 scale
How it was run: (§2)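 Herbicidal effect is a visual injury score given about ten days post-treatment by comparison with untreated controls. Preemergence plots received a directed spray onto sown loam–sand soil; postemergence plants, at the one- to two-leaf stage and 2–10 cm tall, were sprayed at the same time.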

morningglory = experiment: Test A pre-/postemergence greenhouse test; assay type: in vivo, Ipomoea spp.; settings: for Morningglory plant response rating: 0 to 100 scale
How it was run: as §2

cocklebur = experiment: Test C pre-/postemergence test; assay type: in vivo, Xanthium strumarium
How it was run: as §1

Surinam grass = experiment: Test C pre-/postemergence test; assay type: in vivo, Brachiaria decumbens; settings: for Surinam Grass plant response rating: preemergence, scale 0 (no effect) to 100 (complete control)
How it was run: as §1

Italian ryegrass = experiment: Test C pre-/postemergence test; assay type: in vivo, Lolium multiflorum
How it was run: as §1

kochia = experiment: Test C pre-/postemergence test; assay type: in vivo, Kochia scoparia
How it was run: as §1

crabgrass [2] = experiment: Test C pre-/postemergence test; assay type: in vivo, Digitaria sanguinalis
How it was run: as §1

umbrella sedge = experiment: Test C flooded paddy test; assay type: in vivo, Cyperus difformis; settings: Flood
How it was run: (§3)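 Visual injury ratings against untreated controls, taken 13 to 15 days after compound was added to paddy water standing 3 cm above the soil.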

barnyardgrass [3] = experiment: Test A pre-/postemergence greenhouse test; assay type: in vivo, Echinochloa crus-galli; settings: for Barnyardgrass plant response rating: 0 to 100 scale
How it was run: as §2

barnyardgrass [4] = experiment: Test C flooded paddy test; assay type: in vivo, Echinochloa crus-galli; settings: Flood
How it was run: as §3

lambsquarters = experiment: Test C pre-/postemergence test; assay type: in vivo, Chenopodium album
How it was run: as §1

[5] = tested on: common (oilseed) sunflower; experiment: Test C pre-/postemergence test; assay type: in vivo, Helianthus annuus; settings: for Sunflower plant response rating: preemergence, scale 0 (no effect) to 100 (complete control)
How it was run: as §1

bermudagrass = experiment: Test C pre-/postemergence test; assay type: in vivo, Cynodon dactylon
How it was run: as §1

giant foxtail = experiment: Test A pre-/postemergence greenhouse test; assay type: in vivo, Setaria faberi; settings: for Foxtail, Giant plant response rating: 0 to 100 scale
How it was run: as §2

pigweed = experiment: Test C pre-/postemergence test; assay type: in vivo, Amaranthus retroflexus
How it was run: as §1

[6] = 31 g ai/ha, Preemergence, scale 0 to 100
[7] = 62 g ai/ha, preemergence, scale 0 (no effect) to 100 (complete control)
[8] = preemergence, 125 g ai/ha, scale 0 (no effect) to 100 (complete control)
[9] = Postemergence, 125 g ai/ha, 0 is no effect, 100 is complete control
[10] = Postemergence, 500 g ai/ha, 0 is no effect, 100 is complete control
[11] = Preemergence, 125 g ai/ha, 0 no effect, 100 complete control
[12] = Preemergence, 500 g ai/ha, 0 to 100 scale where 0 is no effect and 100 is complete control
[13] = 31 g ai/ha, scale 0 to 100 (0 no effect, 100 complete control)
[14] = 62 g ai/ha, scale 0 to 100, 0 no effect, 100 complete control, 13 to 15 days
[15] = 125 g ai/ha, scale 0 to 100, 0 no effect, 100 complete control, 13 to 15 days
[16] = 250 g ai/ha, scale 0 to 100 (0 no effect, 100 complete control)

For `CC(c1c(C(F)(F)F)nn(C)c1Cl)S(=O)(=O)c1cccc[n+]1[O-]` (stereo not drawn) [Compound 10], the “Soybean plant response rating” value (soybean; [6]) was 0, the “Soybean plant response rating” value (soybean; [7]) was 0 and the “Plant response rating (0 to 100), Soybean” value (soybean; Preemergence, 250 g ai/ha) was 10. For the same compound, the “Soybean plant response rating” value (soybean; [8]) was 5, the “Goosegrass plant response rating” value (Goosegrass; [6]) was 100 and the “Goosegrass plant response rating” value (Goosegrass; [7]) was 100. The “Plant response rating (0 to 100), Goosegrass” value (Goosegrass; Preemergence, 250 g ai/ha) was 100, the “Goosegrass plant response rating” value (Goosegrass; [8]) was 100 and the “Crabgrass, Large plant response rating” value (crabgrass [1]; [9]) was 80. The “Crabgrass, Large plant response rating” value (crabgrass [1]; [10]) was 90, the “Crabgrass, Large plant response rating” value (crabgrass [1]; [11]) was 90 and the “Plant response rating, Crabgrass, Large” value (crabgrass [1]; [12]) was 100. For the same compound, the “Morningglory plant response rating” value (morningglory; [9]) was 20, the “Morningglory plant response rating” value (morningglory; [10]) was 90 and the “Morningglory plant response rating” value (morningglory; [11]) was 80. The “Plant response rating, Morningglory” value (morningglory; [12]) was 90, the “Cocklebur plant response rating” value (cocklebur; [6]) was 0 and the “Cocklebur plant response rating” value (cocklebur; [7]) was 0. The “Plant response rating (0 to 100), Cocklebur” value (cocklebur; Preemergence, 250 g ai/ha) was 0, the “Cocklebur plant response rating” value (cocklebur; [8]) was 0 and the “Surinam Grass plant response rating” value (Surinam grass; 62 g ai/ha) was 98. For the same compound, the “Plant response rating (0 to 100), Surinam Grass” value (Surinam grass; Preemergence, 250 g ai/ha) was 100, the “Surinam Grass plant response rating” value (Surinam grass; 125 g ai/ha) was 100 and the “Ryegrass, Italian plant response rating” value (Italian ryegrass; [6]) was 20. For the same compound, the “Ryegrass, Italian plant response rating” value (Italian ryegrass; [7]) was 40, the “Plant response rating (0 to 100), Ryegrass, Italian” value (Italian ryegrass; Preemergence, 250 g ai/ha) was 98 and the “Ryegrass, Italian plant response rating” value (Italian ryegrass; [8]) was 90. For the same compound, the “Kochia plant response rating” value (kochia; [6]) was 0, the “Kochia plant response rating” value (kochia; [7]) was 40 and the “Plant response rating (0 to 100), Kochia” value (kochia; Preemergence, 250 g ai/ha) was 100. The “Kochia plant response rating” value (kochia; [8]) was 80, the “Crabgrass, Large plant response rating” value (crabgrass [2]; [6]) was 100 and the “Crabgrass, Large plant response rating” value (crabgrass [2]; [7]) was 100. For the same compound, the “Plant response rating (0 to 100), Crabgrass, Large” value (crabgrass [2]; Preemergence, 250 g ai/ha) was 100, the “Crabgrass, Large plant response rating” value (crabgrass [2]; [8]) was 100 and the “Plant response rating, Sedge, Umbrella” value (umbrella sedge; [13]) was 40. For the same compound, the “Plant response rating, Sedge, Umbrella” value (umbrella sedge; [14]) was 80, the “Plant response rating, Sedge, Umbrella” value (umbrella sedge; [15]) was 90 and the “Plant response rating, Sedge, Umbrella” value (umbrella sedge; [16]) was 90. For the same compound, the “Barnyardgrass plant response rating” value (barnyardgrass [3]; [9]) was 80, the “Barnyardgrass plant response rating” value (barnyardgrass [3]; [10]) was 90 and the “Barnyardgrass plant response rating” value (barnyardgrass [3]; [11]) was 100. For the same compound, the “Plant response rating, Barnyardgrass” value (barnyardgrass [3]; [12]) was 100, the “Plant response rating, Barnyardgrass” value (barnyardgrass [4]; [13]) was 0 and the “Plant response rating, Barnyardgrass” value (barnyardgrass [4]; [14]) was 30. For the same compound, the “Plant response rating, Barnyardgrass” value (barnyardgrass [4]; [15]) was 75, the “Plant response rating, Barnyardgrass” value (barnyardgrass [4]; [16]) was 85 and the “Lambsquarters plant response rating” value (lambsquarters; [6]) was 0. For the same compound, the “Lambsquarters plant response rating” value (lambsquarters; [7]) was 98, the “Plant response rating (0 to 100), Lambsquarters” value (lambsquarters; Preemergence, 250 g ai/ha) was 100 and the “Lambsquarters plant response rating” value (lambsquarters; [8]) was 100. The “Sunflower plant response rating” value ([5]; 62 g ai/ha) was 0, the “Plant response rating (0 to 100), Sunflower” value ([5]; Preemergence, 250 g ai/ha) was 100 and the “Sunflower plant response rating” value ([5]; 125 g ai/ha) was 85. The “Bermudagrass plant response rating” value (bermudagrass; [6]) was 95, the “Bermudagrass plant response rating” value (bermudagrass; [7]) was 100 and the “Plant response rating (0 to 100), Bermudagrass” value (bermudagrass; Preemergence, 250 g ai/ha) was 100. The “Bermudagrass plant response rating” value (bermudagrass; [8]) was 100, the “Foxtail, Giant plant response rating” value (giant foxtail; [9]) was 80 and the “Foxtail, Giant plant response rating” value (giant foxtail; [10]) was 90. For the same compound, the “Foxtail, Giant plant response rating” value (giant foxtail; [11]) was 100, the “Plant response rating, Foxtail, Giant” value (giant foxtail; [12]) was 100 and the “Pigweed plant response rating” value (pigweed; [6]) was 70. The “Pigweed plant response rating” value (pigweed; [7]) was 100, the “Plant response rating (0 to 100), Pigweed” value (pigweed; Preemergence, 250 g ai/ha) was 100 and the “Pigweed plant response rating” value (pigweed; [8]) was 100.

Source: patent publication US20100298141A1, “SUBSTITUTED PYRIDINE N-OXIDE HERBICIDES” (E. I. DU PONT DE NEMOURS AND COMPANY, priority 2007, published 2010)
